Test results reported in US6316498A, “Fluorine-containing amino acid derivatives” (Taisho Pharmaceutical Co., Ltd., priority 1998, dated 2001).

Test system: Methamphetamine-induced Hyperactivity in Mice
Experiment: Effect on Methamphetamine-induced Hyperactivity in Mice
Assay type: in vivo, male ICR-strain mice
Details: for Count (30-minute quantity of movement): 1 mg/kg methamphetamine; for Inhibition rate: vs group given solvent only; for ED50: Mus musculus, po, methamphetamine-induced hyperactivity; for inhibition of methamphetamine-induced hyperactivity (in words): ANOVA P<0.05, LY354740 except 0.01 mg/kg group
Procedure: (Effect on Methamphetamine-induced Hyperactivity in Mice)
11-12 male ICR-strain mice (body weights 23-32 g, Charles River Japan Inc.) were used for a group. The mice were housed in a transparent cylindrical measurement cage made of vinyl chloride (diameter 30 cm, height 30 cm) and were acclimated to their environment for 90 minutes.
Next, each of the compounds listed in Table 2 was orally administered to the mice, and 30 minutes later, 1 mg/kg methamphetamine was administered […]. 15 minutes later, the 30-minute quantity of movement of the mice was measured by a count, using an automatic movement measurement device (SCANET/SV-10, from Toyo Sangyo Co., Ltd.). Each listed compound was used suspended in a solvent consisting of 0.3% Tween 80 physiological saline solution.
The inhibition rate was determined from the count of the group of mice given solvent only and the count of the group of mice given each prescribed dosage of the compounds listed in Table 2, and the ED50 value was calculated. Statistical processing was done by analysis of variance (ANOVA), followed by Dunnet's test.

Compound | Count (30-minute quantity of movement) (0.01 mg/kg p.o.) | Inhibition rate (0.01 mg/kg p.o.) | Count (30-minute quantity of movement) (0.1 mg/kg p.o.) | Inhibition rate (0.1 mg/kg p.o.) | Count (30-minute quantity of movement) (1 mg/kg p.o.) | Inhibition rate (1 mg/kg p.o.) | ED50 | inhibition of methamphetamine-induced hyperactivity (in words) (p.o.) | inhibition effect relative to LY354740 for methamphetamine-induced hyperactivity (p.o., vs LY354740, from ED50 values) | Count (30-minute quantity of movement) (10 mg/kg p.o.) | Inhibition rate (10 mg/kg p.o.)
N[C@]1(C(=O)O)[C@H]2[C@@H](C[C@@H]1F)[C@@H]2C(=O)O [Comp. 1, (1S,2S,3S,5R,6S)-2-amino-3-fluorobicyclo[3.1.0]hexane-2,6-dicarboxylic acid] | 9512 ± 3005 | 19.6% | 4291 ± 1283 | 63.7% | 2353 ± 733 | 80.1% | 0.05 mg/kg | A similar effect is also seen | 17.4 times | – | –
N[C@@]1(C(=O)O)CC[C@H]2[C@H](C(=O)O)[C@H]21 [LY354740, (+) - (1S, 2S, 5R, 6S)-2-aminobicyclo[3.1.0]hexane-2,6-dicarboxylic acid] | 12000 ± 3216 | -18.8% | 6975 ± 1489 | 30.9% | 4534 ± 1116 | 55.1% | 0.87 mg/kg | the methamphetamine-induced hyperactivity was inhibited in a dose-dependent manner | – | 3704 ± 1285 | 63.3%
